Molecules are shown by their SMILES.

The subject of this assay is Chemotherapeutic agent-caused diarrhea models of Balb/c mice. The assay is described as follows: Examples 1-229 (Table 3): oral CDK inhibitor, relief of diarrhea caused by a chemotherapeutic agent.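 Also: percent of treated mice whose diarrhea grade fell below chemotherapy-group average.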 The format is in vivo. An excerpt:
Construction of mouse animal models: Chemotherapeutic agent-caused diarrhea models of Balb/c mice were constructed according to the administration mode and frequency of the chemotherapeutic agent as shown in Table 3.
Balb/c mice were fed for 1 week, and then divided into groups. The experiment was divided into a control group, a chemotherapeutic agent group, and a CDK inhibitor group, each of which comprised 10 mice, to perform the administration experiment, for which the administration dosage, mode, time and frequency were shown in Table 3. The control group: being intragastrically administered with the same solvent as that used in the CDK inhibitor group (the time was shown in Table 3), and then being injected/intragastrically administered with the same solvent as that used in the chemotherapeutic agent group (the administration mode was shown in Table 3): the chemotherapeutic agent group: being intragastrically administered with the same solvent as that used in the CDK inhibitor group (the time was shown in Table 3), and then being injected/intragastrically administered with the chemotherapeutic agent (the type, administration mode and dosage were shown in Table 3); the CDK inhibitor group: being intragastrically administered with the CDK inhibitor (the time was shown in Table 3), and then being administered with the chemotherapeutic agent (the mode and dosage were shown in Table 3).
The diarrhea grading of mice was observed and recorded every day.

As to `O=C1Nc2ccc([N+](=O)[O-])cc2/C1=C1/Nc2ccc(O)cc2/C1=N\O` [AGM-130], under “Example 39, Fluorouracil (5-Fu) intraperitoneal injection 125 mg/kg single, CDK inhibitor oral 80 mg/kg single 12 h before, cycle 10 days”, the “Relative remission rate (%)” value was 30%.
For the molecule `C[C@H]1CC[C@H](n2c3cnccc3c3cnc(Nc4ccc5c(n4)CCN(C(=O)CO)C5)nc32)CC1` [AMG925], the “Relative remission rate (%)” value (Example 219, Fluorouracil 100 mg/kg and oxaliplatin 10 mg/kg intraperitoneal injection single, CDK inhibitor oral 150 mg/kg single, 2 h before, 10 days) came out at 60%.
On to `O=C(NC1CCNCC1)c1[nH]ncc1NC(=O)c1c(Cl)cccc1Cl` [AT-7519], for which the “Relative remission rate (%)” value (Example 205, Gemcitabine 60 mg/kg and paclitaxel 10 mg/kg intravenous injection single, CDK inhibitor oral 50 mg/kg single, 4 h before, 8 days) was 20%.
Turning to `CN1CC[C@H](c2c(O)cc(O)c3c(=O)cc(-c4ccccc4Cl)oc23)[C@H](O)C1` [Alvocidib], the “Relative remission rate (%)” value (Example 119, Irinotecan (CPT-11) intraperitoneal injection 240 mg/kg single, CDK inhibitor oral 70 mg/kg single 6 h before, cycle 7 days) was 40%; the “Relative remission rate (%)” value (Example 201, Gemcitabine 60 mg/kg and paclitaxel 10 mg/kg intravenous injection single, CDK inhibitor oral 70 mg/kg single, 6 h before, 8 days) worked out at 50%.
In the case of `COc1cc(F)ccc1-c1ncnc(Nc2cccc(C[S@](C)(=N)=O)c2)n1` [Atuveciclib], the “Relative remission rate (%)” value (Example 158, Docetaxel (DTX) intraperitoneal injection 10 mg/kg single, CDK inhibitor oral 50 mg/kg single 10 h before, cycle 8 days) was 30%.
As for `COc1cc(F)ccc1-c1cc(Nc2cc(CS(C)(=N)=O)ccn2)ncc1F` (centres unmarked) [BAY-1251152], the “Relative remission rate (%)” value (Example 38, Fluorouracil (5-Fu) intraperitoneal injection 125 mg/kg single, CDK inhibitor oral 60 mg/kg single 8 h before, cycle 10 days) is reported as 20%.
Consider `CN1CCN(C(=O)c2ccc3cc(CCNc4ncnc5ccc(C#N)cc45)ccc3c2)CC1` [BCD-115], for which the “Relative remission rate (%)” value (Example 157, Docetaxel (DTX) intraperitoneal injection 10 mg/kg single, CDK inhibitor oral 80 mg/kg single 10 h before, cycle 8 days) is 40%; the “Relative remission rate (%)” value (Example 217, Fluorouracil 100 mg/kg and irinotecan 200 mg/kg intravenous injection single, CDK inhibitor oral 80 mg/kg single, 4 h before, 10 days) turned out to be 20%.
Consider `CC(=O)c1c(C)c2cnc(Nc3ccc(C4CCN(CCS(C)(=O)=O)CC4)cn3)nc2n(C2CCCC2)c1=O` [BEBT-209], for which the “Relative remission rate (%)” value reads like this: (Example 187, Gemcitabine (GEM) intraperitoneal injection 120 mg/kg single, CDK inhibitor oral 80 mg/kg single, 4 h before, 8 days) 40%; (Example 207, Carboplatin 5 mg/kg and paclitaxel 10 mg/kg intraperitoneal injection single, CDK inhibitor oral 80 mg/kg single, 4 h before, 10 days) 50%.
Regarding `Nc1nccc(-c2ccc(O)c(-c3ccnc(N)n3)n2)n1` [BEY-1107], the “Relative remission rate (%)” value runs as follows: (Example 154, Docetaxel (DTX) intraperitoneal injection 10 mg/kg single, CDK inhibitor oral 150 mg/kg single 8 h before, cycle 8 days) 40%; (Example 216, Fluorouracil 100 mg/kg and irinotecan 200 mg/kg intravenous injection single, CDK inhibitor oral 150 mg/kg single, 2 h before, 10 days) 30%.
`CCN1CCN(Cc2ccc(Nc3ncc(F)c(-c4cc(F)c5nc6n(c5c4)C(C)CCC6)n3)nc2)CC1` (centres unmarked) [BPI-16350]: the “Relative remission rate (%)” value is, setting by setting: (Example 30, Fluorouracil (5-Fu) intraperitoneal injection 125 mg/kg single, CDK inhibitor oral 150 mg/kg single 6 h before, cycle 10 days) 80%; (Example 71, Oxaliplatin intraperitoneal injection 20 mg/kg single, CDK inhibitor oral 150 mg/kg single 4 h before, cycle 8 days) 40%; (Example 196, Gemcitabine 60 mg/kg and paclitaxel 10 mg/kg intraperitoneal injection single, CDK inhibitor oral 150 mg/kg single, 2 h before, 8 days) 50%.
As to `Cl.Cl.Cl.Cl.OC[C@@H](O)[C@@H](CO)N1CCNCCNCCNCC1` [CS-3002], the “Relative remission rate (%)” value is recorded as 70% (Example 149, Docetaxel (DTX) intraperitoneal injection 10 mg/kg single, CDK inhibitor oral 200 mg/kg single 4 h before, cycle 8 days); 50% (Example 223, Fluorouracil 100 mg/kg and oxaliplatin 10 mg/kg intraperitoneal injection single, CDK inhibitor oral 200 mg/kg single, 2 h before, 10 days).
Regarding `CN1CCN(C2CCN(c3ccc(Nc4ncc5sc(C(=O)N(C)C)c(C6CCCC6)c5n4)nc3)CC2)CC1` [FCN437], the “Relative remission rate (%)” value (Example 147, Docetaxel (DTX) intraperitoneal injection 10 mg/kg single, CDK inhibitor oral 90 mg/kg single 8 h before, cycle 8 days) turned out to be 60%; the “Relative remission rate (%)” value (Example 206, Carboplatin 5 mg/kg and paclitaxel 10 mg/kg intraperitoneal injection single, CDK inhibitor oral 90 mg/kg single, 4 h before, 10 days) was 40%.
Turning to `CC1CCC(n2c3cnccc3c3cnc(Nc4ccc5c(n4)CCN(C(=O)CO)C5)nc32)CC1` (centres unmarked) [FLX-925], the “Relative remission rate (%)” value is on record as 50% (Example 27, Fluorouracil (5-Fu) intraperitoneal injection 125 mg/kg single, CDK inhibitor oral 75 mg/kg single 4 h before, cycle 10 days); 60% (Example 69, Oxaliplatin intraperitoneal injection 20 mg/kg single, CDK inhibitor oral 75 mg/kg single 4 h before, cycle 8 days); 60% (Example 85, Oxaliplatin intravenous injection 17.5 mg/kg single, CDK inhibitor oral 75 mg/kg single 6 h before, cycle 8 days); 50% (Example 114, Irinotecan (CPT-11) intramuscular injection 250 mg/kg single, CDK inhibitor oral 75 mg/kg single 4 h before, cycle 7 days).
With `CC[C@H](Nc1nc(NCc2cnc(C)cc2C)c2ncn(C(C)C)c2n1)[C@@H](C)O` [Fadraciclib], the “Relative remission rate (%)” value reads like this: (Example 122, Irinotecan (CPT-11) intraperitoneal injection 240 mg/kg single, CDK inhibitor oral 80 mg/kg single 8 h before, cycle 7 days) 30%; (Example 159, Docetaxel (DTX) intraperitoneal injection 10 mg/kg single, CDK inhibitor oral 80 mg/kg single 12 h before, cycle 8 days) 20%.
Regarding `CC(C)N1CCN(c2ccc(Nc3ncc4cc5n(c4n3)C3(CCCCC3)CNC5=O)nc2)CC1` [G1T38], the “Relative remission rate (%)” value was determined as 20% (Example 40, Fluorouracil (5-Fu) intraperitoneal injection 125 mg/kg single, CDK inhibitor oral 150 mg/kg single 1 h before, cycle 10 days); 40% (Example 41, Fluorouracil (5-Fu) intraperitoneal injection 125 mg/kg single, CDK inhibitor oral 150 mg/kg single 4 h before, cycle 10 days); 70% (Example 42, Fluorouracil (5-Fu) intraperitoneal injection 125 mg/kg single, CDK inhibitor oral 150 mg/kg single 8 h before, cycle 10 days); 50% (Example 43, Fluorouracil (5-Fu) intraperitoneal injection 125 mg/kg single, CDK inhibitor oral 150 mg/kg single 16 h before, cycle 10 days); 20% (Example 79, Oxaliplatin intraperitoneal injection 20 mg/kg single, CDK inhibitor oral 150 mg/kg single 1 h before, cycle 8 days); 40% (Example 80, Oxaliplatin intraperitoneal injection 20 mg/kg single, CDK inhibitor oral 150 mg/kg single 2 h before, cycle 8 days). Besides, the “Relative remission rate (%)” value (Example 81, Oxaliplatin intraperitoneal injection 20 mg/kg single, CDK inhibitor oral 150 mg/kg single 4 h before, cycle 8 days) stood at 40%; the “Relative remission rate (%)” value (Example 82, Oxaliplatin intraperitoneal injection 20 mg/kg single, CDK inhibitor oral 150 mg/kg single 8 h before, cycle 8 days) was found to be 70%; the “Relative remission rate (%)” value (Example 83, Oxaliplatin intraperitoneal injection 20 mg/kg single, CDK inhibitor oral 150 mg/kg single 12 h before, cycle 8 days) was found to be 70%; the “Relative remission rate (%)” value (Example 84, Oxaliplatin intraperitoneal injection 20 mg/kg single, CDK inhibitor oral 150 mg/kg single 16 h before, cycle 8 days) amounted to 50%; the “Relative remission rate (%)” value (Example 125, Irinotecan (CPT-11) intraperitoneal injection 240 mg/kg single, CDK inhibitor oral 150 mg/kg single 4 h before, cycle 7 days) turned out to be 50%; the “Relative remission rate (%)” value (Example 126, Irinotecan (CPT-11) intraperitoneal injection 240 mg/kg single, CDK inhibitor oral 150 mg/kg single 6 h before, cycle 7 days) is 60%. Further, the “Relative remission rate (%)” value (Example 128, Irinotecan (CPT-11) intramuscular injection 240 mg/kg single, CDK inhibitor oral 150 mg/kg single 2 h before, cycle 7 days) is listed as 50%; the “Relative remission rate (%)” value (Example 163, Docetaxel (DTX) intraperitoneal injection 10 mg/kg single, CDK inhibitor oral 150 mg/kg single 8 h before, cycle 8 days) is 70%; the “Relative remission rate (%)” value (Example 164, Docetaxel (DTX) intraperitoneal injection 10 mg/kg single, CDK inhibitor oral 150 mg/kg single 12 h before, cycle 8 days) was found to be 60%; the “Relative remission rate (%)” value (Example 211, Carboplatin 5 mg/kg and paclitaxel 10 mg/kg intraperitoneal injection single, CDK inhibitor oral 150 mg/kg single, 8 h before, 10 days) is listed as 40%; the “Relative remission rate (%)” value (Example 212, Carboplatin 5 mg/kg and paclitaxel 10 mg/kg intraperitoneal injection single, CDK inhibitor oral 150 mg/kg single, 12 h before, 10 days) is 70%.
Regarding `CC1=Nc2c(F)cc(-c3nc(Nc4ccc(C5CCN(C)CC5)cn4)ncc3F)cc2C12CCCC2` [GLR2007], the “Relative remission rate (%)” value (Example 155, Docetaxel (DTX) intraperitoneal 10 mg/kg single, CDK inhibitor oral 60 mg/kg single 8 h before, cycle 8 days) came out at 50%; the “Relative remission rate (%)” value (Example 168, Docetaxel (DTX) intravenous injection 10 mg/kg single, CDK inhibitor oral 60 mg/kg single 4 h before, cycle 8 days) is 30%; the “Relative remission rate (%)” value (Example 191, Gemcitabine (GEM) intraperitoneal injection 120 mg/kg single, CDK inhibitor oral 60 mg/kg single, 10 h before, 8 days) was found to be 50%.
On to `NS(=O)(=O)c1ccc(S(=O)(=O)Nc2cccc3c(Cl)c[nH]c23)cc1` [Indisulam], for which the “Relative remission rate (%)” value by setting is: (Example 74, Oxaliplatin intraperitoneal injection 20 mg/kg single, CDK inhibitor oral 175 mg/kg single 4 h before, cycle 8 days) 20%; (Example 190, Gemcitabine (GEM) intraperitoneal injection 120 mg/kg single, CDK inhibitor oral 175 mg/kg single, 4 h before, 8 days) 40%.
For `CN1CCN(c2ccc(Nc3ncc4cc(C#N)c(=O)n(C5CCCC5)c4n3)cc2)CC1` [ON123300], the “Relative remission rate (%)” value (Example 121, Irinotecan (CPT-11) intraperitoneal injection 240 mg/kg single, CDK inhibitor oral 250 mg/kg single 8 h before, cycle 7 days) was 60%; the “Relative remission rate (%)” value (Example 202, Gemcitabine 60 mg/kg and paclitaxel 10 mg/kg intraperitoneal injection single, CDK inhibitor oral 250 mg/kg single, 2 h before, 8 days) is recorded as 50%.
